Earlier results, collected in patent US20190083388A1, “SYNTHENTIC TRANSDERMAL CANNABIDIOL FOR THE TREATMENT OF FOCAL EPILEPSY IN ADULTS” (ZYNERBA PHARMACEUTICALS, INC., priority 2017, published 2019).
Like-named read-outs stand apart in the source and are kept apart here.

Legend:
[1] = not given; remark: listed apart in the source
CB2 receptors = CB2 receptors (Homo sapiens, UniProt P34972)
Chain of CB2 receptors (P34972 whole entry): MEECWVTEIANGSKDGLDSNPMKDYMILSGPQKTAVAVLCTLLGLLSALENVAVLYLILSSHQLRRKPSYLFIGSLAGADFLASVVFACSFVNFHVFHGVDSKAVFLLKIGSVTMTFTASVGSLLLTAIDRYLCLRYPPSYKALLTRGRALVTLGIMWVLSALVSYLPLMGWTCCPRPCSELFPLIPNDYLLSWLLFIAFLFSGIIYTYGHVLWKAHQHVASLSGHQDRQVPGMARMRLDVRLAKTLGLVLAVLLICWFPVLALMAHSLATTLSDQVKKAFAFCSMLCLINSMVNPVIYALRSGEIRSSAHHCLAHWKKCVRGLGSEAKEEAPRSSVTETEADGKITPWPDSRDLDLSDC

C=C(C)C1CCC(C)=CC1c1c(O)cc(CCCCC)cc1O (stereo not shown) [CBD, 2-[3-methyl-6-(1-methylethenyl)-2-cyclohexen-1-yl]-5-pentyl-1,3-benzenediol]
bioavailability (oral): ≈ 6%
bioavailability (transdermal delivery): about 25%
solubility in water [1]: virtually insoluble
affinity for CB2 receptors (CB2 receptors): low affinity
